These results are taken from patent publication US11801272B2, “Bacillus strains improving health and performance of production animals” (Novozymes A/S, priority 2015, dated 2023).

SMILES strings stand for the structures. ≈ marks a conversion by molar mass, not a printed value. Like-named read-outs stand apart in the source and are kept apart here. Where a SMILES comes first, the peptide text is derived from it. Bridges are numbered along the chain shown (N, C = ends). [ ]: non-standard residue; d: D form. The star is where a group is joined. Ileψ(thiazoline)Cys = CC[C@H](C)[C@H](N)C1=N[C@H](C(=O)*)CS1; dOrn = NCCC[C@@H](N)C(=O)O

The MIC is the lowest concentration found to suppress growth.

One experiment has as its system B. subtilis DSM 29871. The format is cell-based. As to conditions: Bacillus subtilis.
Experiment [1] has as its system B. amyloliquefaciens DSM 29869. The format is cell-based. Particulars: Bacillus amyloliquefaciens, DSM29869, 37° C., 20-24 h.
In another experiment the test system is B. subtilis DSM 29870. It counts as cell-based. Particulars: Bacillus subtilis.
For another experiment, the system named is Clostridium perfringens. The format is in vivo, broiler chickens Cobb×Cobb. Particulars: infected, bacitracin 50 ppm.
Setting [2] is: Trial 1, DSM 29870 1.10^9 CFU/kg of feed.
[3] abbreviates: Trial 3, DSM 29870 5.10^8 CFU/kg of feed.

Turning to `CN[C@H](CC(C)C)C(=O)N[C@H]1C(=O)N[C@@H](CC(N)=O)C(=O)N[C@H]2C(=O)N[C@H]3C(=O)N[C@H](C(=O)N[C@H](C(=O)O)c4cc(O)cc(O)c4-c4cc3ccc4O)[C@H](O)c3ccc(c(Cl)c3)Oc3cc2cc(c3O[C@@H]2O[C@H](CO)[C@@H](O)[C@H](O)[C@H]2O[C@H]2C[C@](C)(N)[C@H](O)[C@H](C)O2)Oc2ccc(cc2Cl)[C@H]1O` [Vancomycin], the MIC stood at 0.25 µg/mL (≈ 0.173 µM) in the experiment on B. subtilis DSM 29871 (DSM29871, read-out: MIC 1); 0.25 µg/mL (≈ 0.173 µM) in the experiment on B. subtilis DSM 29871 (DSM29871, read-out: MIC 2); 0.25 µg/mL (≈ 0.173 µM) in the experiment on B. subtilis DSM 29871 (DSM29871, read-out: MIC 3); 0.25 µg/mL (≈ 0.173 µM) in experiment [1] (biological replicate 1, read-out: MIC 1); 0.25 µg/mL (≈ 0.173 µM) in experiment [1] (biological replicate 2, read-out: MIC 2); 0.25 µg/mL (≈ 0.173 µM) in experiment [1] (biological replicate 3, read-out: MIC 3). Further, the MIC is 0.25 µg/mL (≈ 0.173 µM) with B. subtilis DSM 29870 (DSM29870, read-out: MIC 1); 0.25 µg/mL (≈ 0.173 µM) with B. subtilis DSM 29870 (DSM29870, read-out: MIC 2); 0.25 µg/mL (≈ 0.173 µM) in the experiment on B. subtilis DSM 29870 (DSM29870, read-out: MIC 3).

In the case of `CC[C@H](C)[C@H](N)C1=N[C@H](C(=O)N[C@@H](CC(C)C)C(=O)N[C@H](CCC(=O)O)C(=O)N[C@H](C(=O)N[C@H]2CCCCNC(=O)[C@H](CC(N)=O)NC(=O)[C@@H](CC(=O)O)NC(=O)[C@H](Cc3cnc[nH]3)NC(=O)[C@@H](Cc3ccccc3)NC(=O)[C@H]([C@@H](C)CC)NC(=O)[C@@H](CCCN)NC2=O)[C@@H](C)CC)CS1` [bacitracin] ({Ileψ(thiazoline)Cys}-L[dE]IK[dOrn]I[dF]H[dD]N; lactam 4-C), the “Dead birds with necrotic enteritis lesions (d1-d28)” value in the experiment with Clostridium perfringens (setting [2]) worked out at 1.6b %; in the experiment on Clostridium perfringens (Trial 2, DSM 29870 5.10^8 CFU/kg of feed), 6.3c %; with Clostridium perfringens (setting [3]) it was 4.7bc %. Besides, the “Total mortality (d1-d28)” value in the experiment on Clostridium perfringens (setting [2]) is on record as 5.0b %; with Clostridium perfringens (setting [3]), 15.0a %.
